Counter-ions that a name gives are not always drawn. Like-named read-outs stand apart in the source and are kept apart here. Each block holds one molecule with its values, some of them ahead of it.
Experiments:
[1] = molecular target: human CDK4 and genetically truncated (1-264) cyclin D3 (Homo sapiens, UniProt P11802); assay: Inhibition of CDK4/Cyclin D Retinoblastoma Kinase Activity; assay type: biochemical; conditions: for Ki: apparent Ki, CDK4/truncated cyclin D3, Rb fragment substrate, 25 μM ATP
human CDK4 and genetically truncated (1-264) cyclin D3, sequence (P11802 whole entry, the tested form may be a part): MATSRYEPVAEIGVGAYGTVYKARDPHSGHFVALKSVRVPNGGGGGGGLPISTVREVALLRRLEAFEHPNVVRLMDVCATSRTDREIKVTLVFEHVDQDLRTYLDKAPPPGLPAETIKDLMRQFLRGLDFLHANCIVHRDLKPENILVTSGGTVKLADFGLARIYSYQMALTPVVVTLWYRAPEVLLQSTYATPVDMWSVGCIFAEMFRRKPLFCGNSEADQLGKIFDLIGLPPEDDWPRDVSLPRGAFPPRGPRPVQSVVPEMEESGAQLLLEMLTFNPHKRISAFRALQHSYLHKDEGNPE
human CDK4 and genetically truncated (1-264) cyclin D3, sequence (P30281 1-264 partner): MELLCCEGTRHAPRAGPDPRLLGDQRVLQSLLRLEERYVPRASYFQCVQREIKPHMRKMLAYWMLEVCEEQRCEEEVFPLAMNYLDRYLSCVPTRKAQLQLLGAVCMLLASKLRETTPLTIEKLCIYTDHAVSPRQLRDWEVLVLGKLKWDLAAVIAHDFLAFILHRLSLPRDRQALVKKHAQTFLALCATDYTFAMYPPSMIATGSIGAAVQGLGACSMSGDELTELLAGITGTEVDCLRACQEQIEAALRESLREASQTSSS
Procedure, shortened: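 Read-out: 32P/33P incorporation into Rb fragment (386-928) captured on nitrocellulose, phosphorimager. Enzyme 5 nM CDK4/cyclin D3(1-264) from insect cells; ATP 25 μM, pH 7.4, 30 °C, 20 min (60 min for tight binders). Ki from competitive fits.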

HCT-116 cell line = assay: Inhibition of cell growth, tetrazolium salt (MTT) assay; assay type: cell-based; conditions: for IC50: Homo sapiens, HCT-116, 120 h, MTT, three to five days, read-out: HCT-116 IC50; for HCT-116 % Inhibition at 0.25 μM: 0.25 μM compound
Procedure, shortened: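 Growth inhibition is scored relative to cells receiving only 0.5% (v/v) DMSO. Plated cells rest 4 h, then take compound for three to five days at 37° C; MTT reduction to formazan is read at 540 nm.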

CDK2/Cyclin A = CDK2/Cyclin A (Homo sapiens, UniProt P24941); assay: Inhibition of CDK2/Cyclin A Retinoblastoma Kinase Activity; assay type: biochemical; conditions: for Ki: apparent Ki, CDK2/proteolyzed cyclin A, Rb fragment substrate, 25 μM ATP; for CDK2 % Inhibition At 0.03 μM: Table 2
Procedure, shortened: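 Human CDK2, baculovirus/insect-cell expressed, complexed with proteolyzed cyclin A (10 nM or 19 nM CDK2) phosphorylates an Rb fragment with 25 μM [32P/33P]ATP at pH 7.4, 30° C, for 60 or 75 minutes under initial-rate conditions. Filter-captured radioactivity is read by phosphorimager; apparent Ki from competitive-inhibition fits.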

[2] = 0.1 μM compound, HCT-116, Table 3

Structure (SMILES): CN1CCN(Cc2ccc(S(=O)(=O)N3CCC(Nc4nc(N)c(C(=O)c5c(F)cccc5F)s4)CC3)cc2)CC1 [Example J7]
Ki [1]: 0.78 nM
IC50 (HCT-116 cell line; first HCT-116 column (c4)): 130 nM
IC50 (HCT-116 cell line; second HCT-116 column (c5)): 300 nM
Ki (CDK2/Cyclin A): 1.9 nM

Structure (SMILES): CN1CC[C@H](c2ccc(S(=O)(=O)N3CCC(Nc4nc(N)c(C(=O)c5c(F)cccc5F)s4)CC3)cc2)C1 [Example F52, (4-Amino-2-{1-[4-(1-methyl-pyrrolidin-3R-yl)-benzenesulfonyl]-piperidin-4-ylamino}-thiazol-5-yl)-(2,6-difluoro-phenyl)-methanone]
Ki [1]: 0.52 nM
IC50 (HCT-116 cell line; first HCT-116 column (c4)): 93 nM
IC50 (HCT-116 cell line; second HCT-116 column (c5)): 500 nM
Ki (CDK2/Cyclin A): 1 nM

Structure (SMILES): Nc1nc(NC2CCN(C(=O)Nc3cccc(F)c3)CC2)sc1C(=O)c1c(F)cccc1F [Example O13]
CDK4 % Inhibition at 0.03 μM ([1]; 0.03 μM compound, Table 2): 8%
HCT-116 % Inhibition at 0.25 μM (HCT-116 cell line; HCT-116, Table 2): 22%
CDK2 % Inhibition At 0.03 μM (CDK2/Cyclin A; 0.03 μM compound): 37%

Structure (SMILES): CCCN(CCCS(=O)(=O)N1CCC(Nc2nc(N)c(C(=O)c3c(F)cccc3F)s2)CC1)CC1CC1 [Example K6, 1-(4-Amino-2-{1-[3-(cyclopropylmethyl-propyl-amino)propane-1-sulfonyl]-piperidin-4-ylamino}-thiazol-5-yl)-1-(2,6-difluoro-phenyl)-methanone.]
Ki [1]: 1.5 nM
IC50 (HCT-116 cell line; first HCT-116 column (c4)): 180 nM
IC50 (HCT-116 cell line; second HCT-116 column (c5)): 800 nM
Ki (CDK2/Cyclin A): 5.8 nM

Structure (SMILES): Cn1cnc(-c2ccc(S(=O)(=O)N3CCC(Nc4nc(N)c(C(=O)c5c(F)cccc5F)s4)CC3)cn2)c1 [Example I5, Hydrochloride]
Ki [1]: 0.67 nM
IC50 (HCT-116 cell line; first HCT-116 column (c4)): 80 nM
IC50 (HCT-116 cell line; second HCT-116 column (c5)): 500 nM
Ki (CDK2/Cyclin A): 5.1 nM

Structure (SMILES): CN(C)CCc1ncc(S(=O)(=O)N2CCC(Nc3nc(N)c(C(=O)c4c(F)cccc4F)s3)CC2)cn1 [Example N12, (4-Amino-2-{1-[2-(2-dimethylamino-ethyl)-pyrimidine-5-sulfonyl]-piperidine-4-ylamino}-thiazol-5-yl)-(2,6-difluoro-phenyl)-methanone Hydrochloride Salt.]
Ki [1]: 0.62 nM
IC50 (HCT-116 cell line; first HCT-116 column (c4)): 67 nM
IC50 (HCT-116 cell line; second HCT-116 column (c5)): 130 nM
Ki (CDK2/Cyclin A): 1.7 nM

Structure (SMILES): CN(CCO)c1ccc(S(=O)(=O)N2CCC(Nc3nc(N)c(C(=O)c4c(F)cccc4F)s3)CC2)cn1 [Example G10]
Ki [1]: 1.2 nM
IC50 (HCT-116 cell line; first HCT-116 column (c4)): 670 nM
IC50 (HCT-116 cell line; second HCT-116 column (c5)): > 5000 nM
Ki (CDK2/Cyclin A): < 1 nM

Continued, in another order:

CDK4 % Inhibition at 0.03 μM ([1]; 0.03 μM compound, Table 4): 5%
CDK2 % Inhibition at 0.03 μM (CDK2/Cyclin A; 0.03 μM compound, Table 4): −42%
Structure (SMILES): CCCCC(CC)COC(=O)N1CCC(Nc2nc(N)c(C(=O)c3c(F)cccc3F)s2)CC1 (stereo not shown) [Example Q7]
HCT-116 % Inhibition at 0.1 μM (HCT-116 cell line; 0.1 μM compound, HCT-116, Table 4): 5%
HCT-116 % Inhibition at 0.25 μM (HCT-116 cell line; HCT-116, Table 4): 39%

CDK4 % Inhibition at 0.03 μM ([1]; 0.03 μM compound, Table 3): 66%
CDK2 % Inhibition at 0.03 μM (CDK2/Cyclin A; 0.03 μM compound, Table 3): 71%
Structure (SMILES): COC(=O)c1sccc1S(=O)(=O)N1CCC(Nc2nc(N)c(C(=O)c3c(F)cccc3F)s2)CC1 [Example P63]
HCT-116 % Inhibition at 0.1 μM (HCT-116 cell line; [2]): 23%
HCT-116 % Inhibition at 0.25 μM (HCT-116 cell line; HCT-116, Table 3): 40%

CDK4 % Inhibition at 0.03 μM ([1]; 0.03 μM compound, Table 3): 70%
CDK2 % Inhibition at 0.03 μM (CDK2/Cyclin A; 0.03 μM compound, Table 3): 74%
Structure (SMILES): Nc1nc(NC2CCN(S(=O)(=O)c3cccc4nsnc34)CC2)sc1C(=O)c1c(F)cccc1F [Example P62]
HCT-116 % Inhibition at 0.1 μM (HCT-116 cell line; [2]): 22%
HCT-116 % Inhibition at 0.25 μM (HCT-116 cell line; HCT-116, Table 3): 26%

CDK4 % Inhibition at 0.03 μM ([1]; 0.03 μM compound, Table 2): 9%
CDK2 % Inhibition At 0.03 μM (CDK2/Cyclin A; 0.03 μM compound): 31%
Structure (SMILES): Nc1nc(NC2CCN(C(=O)Nc3ccc(F)cc3)CC2)sc1C(=O)c1c(F)cccc1F [Example O19]
HCT-116 % Inhibition at 0.25 μM (HCT-116 cell line; HCT-116, Table 2): 7%

CDK4 % Inhibition at 0.03 μM ([1]; at 0.03 μM): 58%
CDK2 % Inhibition at 0.03 μM (CDK2/Cyclin A; at 0.03 μM): 22%
Structure (SMILES): Nc1nc(NC2CCN(C(=O)c3ccc(OC(F)(F)F)cc3)CC2)sc1C(=O)c1c(F)cccc1F [Example R22]
HCT-116 % Inhibition at 0.1 μM (HCT-116 cell line; HCT-116 cells, at 0.1 μM): 7%
HCT-116 5 Inhibition at 0.25 μM (HCT-116 cell line; HCT-116 cells): 48

CDK4 % Inhibition at 0.03 μM ([1]; at 0.03 μM): 18%
CDK2 % Inhibition at 0.03 μM (CDK2/Cyclin A; at 0.03 μM): 4%
Structure (SMILES): Nc1nc(NC2CCN(C(=O)c3ccccc3)CC2)sc1C(=O)c1c(F)cccc1F [Example R103]
HCT-116 % Inhibition at 0.1 μM (HCT-116 cell line; HCT-116 cells, at 0.1 μM): 0%
HCT-116 5 Inhibition at 0.25 μM (HCT-116 cell line; HCT-116 cells): 45

CDK4 % Inhibition at 0.03 μM ([1]; at 0.03 μM): 35%
CDK2 % Inhibition at 0.03 μM (CDK2/Cyclin A; at 0.03 μM): 0%
Structure (SMILES): Nc1nc(NC2CCN(C(=O)c3ccc(C(F)(F)F)cc3C(F)(F)F)CC2)sc1C(=O)c1c(F)cccc1F [Example R38]
HCT-116 % Inhibition at 0.1 μM (HCT-116 cell line; HCT-116 cells, at 0.1 μM): 0%
HCT-116 5 Inhibition at 0.25 μM (HCT-116 cell line; HCT-116 cells): 33

CDK4 % Inhibition at 0.03 μM ([1]; 0.03 μM compound, Table 3): 38%
CDK2 % Inhibition at 0.03 μM (CDK2/Cyclin A; 0.03 μM compound, Table 3): 28%
Structure (SMILES): Nc1nc(NC2CCN(S(=O)(=O)c3ccc(Oc4ccccc4)cc3)CC2)sc1C(=O)c1c(F)cccc1F [Example P84]
HCT-116 % Inhibition at 0.1 μM (HCT-116 cell line; [2]): 10%
HCT-116 % Inhibition at 0.25 μM (HCT-116 cell line; HCT-116, Table 3): 26%

From patent US20050101595A1, “N-containing cycloalkyl-substituted amino-thiazole derivatives and pharmaceutical compositions for inhibiting cell proliferation and methods for their use” (PFIZER INC., priority 2003, published 2005)
